Paper PMC10461462, “A critical inter‐subunit interaction for the transmission of the allosteric signal in the Agrobacterium tumefaciens ADP‐glucose pyrophosphorylase” (Protein Science : A Publication of the Protein Society, 2023)
Where two headings read alike, the source gives them in different places.

Experiments:
[1] = biological target: Agrobacterium tumefaciens ADP-glucose pyrophosphorylase mutant D141A (Agrobacterium tumefaciens) (UniProt P39669); test: SEC
[2] = biological target: Agrobacterium tumefaciens ADP-glucose pyrophosphorylase mutant D141E (Agrobacterium tumefaciens) (UniProt P39669); test: SEC
[3] = biological target: Agrobacterium tumefaciens ADP-glucose pyrophosphorylase mutant R11K (Agrobacterium tumefaciens) (UniProt P39669); test: SEC
[4] = biological target: Agrobacterium tumefaciens ADP-glucose pyrophosphorylase mutant D141R (Agrobacterium tumefaciens) (UniProt P39669); test: SEC
[5] = biological target: Agrobacterium tumefaciens ADP-glucose pyrophosphorylase mutant D141N (Agrobacterium tumefaciens) (UniProt P39669); test: SEC
[6] = biological target: Agrobacterium tumefaciens ADP-glucose pyrophosphorylase mutant R11D (Agrobacterium tumefaciens) (UniProt P39669); test: SEC
[7] = biological target: Agrobacterium tumefaciens ADP-glucose pyrophosphorylase double mutant R11D/D141R (Agrobacterium tumefaciens) (UniProt P39669); test: SEC
[8] = biological target: T1, R11D (Agrobacterium tumefaciens, UniProt P39669, R11D); test: Thermal shift assay (SYPRO Orange) with varied ligand concentration in 50 mM HEPES pH 8.0, 0.02 mg/mL protein, 25-95 C; Tm versus log ligand concentration fitted to obtain Kd.; assay type: binding; settings: n = 3
T1 construct: gene glgC; His-tagged, from pBLH1/pBHL1 derivative, expressed in E. coli BL21(DE3); homotetramer
Method: (§1) We used thermal shift assays to find whether the effect of the mutation was on the ability of Fru6P/Pyr either to bind or activate the enzyme. Activators of ADP‐Glc PPase bind to the enzyme and stabilize it from thermal denaturation (Bhayani & Ballicora, [2022]).
(§2) Thermal shift assays were performed as described (Hill et al., [2019]) using the QuantStudio™ 3 Real‐Time PCR System (Thermo Fisher Scientific) and QuantStudio™ Design and Analysis Software v1.5.1. The final volume for the assay was 20 μL and contained 50 mM HEPES (pH 8.0), SYPRO Orange Dye (Sigma‐Aldrich) (4×) and 0.02 mg/mL purified protein, in the absence or presence of 5 mM Fru6P, and 5 mM Pyr. A control with no protein was also performed for all the samples. A continuous temperature increases from 25.0 to 95.0°C was scanned at a ramp increment of 0.1°C per second. Scans were run in triplicates and averaged. The unfolding temperatures (T m ) of the proteins were measured using the minimum of the third derivative of the scanned fluorescence vs. temperature (d^3F/dT^3) (Bhayani & Ballicora, [2022]).
(§3) Thermal Shift assays were used to study the relationship between the melting temperature ( Tm ) of a protein and the logarithm of the ligand concentration using the following equation (Bhayani & Ballicora, [2022]). y=Tm0+Alog101+10^x/Kd.
(§4) In this equation, y is Tm , and x is the logarithm of the ligand concentration. […] The data was fitted to an equation using Origin™ 2017 and the Levenberg–Marquardt algorithm, to find the optimum parameters Tm0 , A , and Kd (Bhayani & Ballicora, [2022]). To ensure robustness and reliability, all thermal shift assays were conducted in triplicate.

[9] = biological target: T2, WT (Agrobacterium tumefaciens, UniProt P39669); test: as above; assay type: binding; settings: n = 3
T2 construct: gene glgC; His-tagged, from pBLH1/pBHL1 (pET28c derivative), expressed in E. coli BL21(DE3); homotetramer
T2 sequence (P39669 1-420): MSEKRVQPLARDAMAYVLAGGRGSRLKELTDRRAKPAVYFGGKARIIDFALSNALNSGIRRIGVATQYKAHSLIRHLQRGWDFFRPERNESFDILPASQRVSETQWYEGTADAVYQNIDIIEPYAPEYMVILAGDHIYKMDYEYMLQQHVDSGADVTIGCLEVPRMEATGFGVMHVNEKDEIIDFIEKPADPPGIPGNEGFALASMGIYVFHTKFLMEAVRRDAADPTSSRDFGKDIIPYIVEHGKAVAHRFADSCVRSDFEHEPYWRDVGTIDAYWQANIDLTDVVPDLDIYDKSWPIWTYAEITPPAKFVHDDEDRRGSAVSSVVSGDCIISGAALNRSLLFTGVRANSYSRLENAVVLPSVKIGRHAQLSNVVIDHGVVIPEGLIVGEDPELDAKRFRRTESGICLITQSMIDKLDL
Method: as §1, §2, §3, §4

[10] = biological target: T3, D141A (Agrobacterium tumefaciens, UniProt P39669, D141A); test: Activator saturation of ADP-Glc synthesis (Malachite Green) at pH 7.5 with 1.5 mM Glc1P and 4 mM ATP; modified Hill fit.; assay type: biochemical; settings: n = 2; read-out: A0.5
T3 construct: gene glgC; His-tagged, from pBLH1/pBHL1 derivative, expressed in E. coli BL21(DE3); homotetramer
Method: (§5) This condition was considered “saturating concentrations” of substrate. To analyze the effect of the activators in “sub‐saturating concentrations” of substrate, the concentration of ATP was 0.2 mM.
(§6) The assays were performed as described in Materials and Methods in the presence of 4 mM ATP.
(§7) (1 picture or pasted object on this page, not shown here)

[11] = biological target: T4, R11K (Agrobacterium tumefaciens, UniProt P39669, R11K); test: Activator saturation of ADP-Glc synthesis (PPi converted to phosphate, Malachite Green) in 50 mM HEPES pH 7.5, 7 mM MgCl2, 1.5 mM Glc1P, 1.5 mM ATP; modified Hill fit.; assay type: biochemical; settings: n = 2
T4 construct: gene glgC; His-tagged, from pBLH1/pBHL1 derivative, expressed in E. coli BL21(DE3); homotetramer
Method: as §5
(§8) Table S1 . Kinetic parameters for the activators of the A. tumefaciens ADP -Glc PPase wild type, and mutants.
(§9) a Assays were performed as described in Materials and Methods under “activator saturation assay”.
(§10) b Activation fold is calculated by dividing the maximum velocity (Vm) by the velocity in the absence of activator (V0).

[12] = biological target: T3, D141A; test: as above; assay type: biochemical; settings: n = 2; read-out: A0.5
Method: as §5, §8, §9, §10

[13] = biological target: T2, WT; test: as above; assay type: biochemical; settings: n = 2; read-out: A0.5
Method: as §5, §8, §9, §10

[14] = biological target: T5, R11D/D141R (Agrobacterium tumefaciens, UniProt P39669, D141R/R11D); test: as above; assay type: biochemical; settings: n = 2; read-out: A0.5
T5 construct: gene glgC; His-tagged, from pBLH1/pBHL1 derivative, expressed in E. coli BL21(DE3); homotetramer
Method: as §5, §8, §9, §10

[15] = biological target: T6, D141E (Agrobacterium tumefaciens, UniProt P39669, D141E); test: as above; assay type: biochemical; settings: n = 2
T6 construct: gene glgC; His-tagged, from pBLH1/pBHL1 derivative, expressed in E. coli BL21(DE3); homotetramer
Method: as §5, §8, §9, §10

[16] = biological target: T7, D141N (Agrobacterium tumefaciens, UniProt P39669, D141N); test: as above; assay type: biochemical; settings: n = 2; read-out: A0.5
T7 construct: gene glgC; His-tagged, from pBLH1/pBHL1 derivative, expressed in E. coli BL21(DE3); homotetramer
Method: as §5, §8, §9, §10

[17] = tested on: T8, R11A; test: as above; assay type: biochemical; design: method as in values quoted from other papers; settings: n = 2; read-out: A0.5; cited from earlier work
T8 construct: values from literature (Gomez-Casati et al., 2001)
Method: as §5, §8, §9, §10

[18] = biological target: T7, D141N; test: Effector saturation of ADP-Glc synthesis (Malachite Green) at pH 7.5 with 1.5 mM Glc1P and 4 mM ATP, effector inhibiting instead of activating; modified Hill fit.; assay type: biochemical; settings: n = 2; read-out: A0.5 (mM), footnote: I0.5
Method: as §5, §6, §7

[19] = biological target: the molecule itself; test: SEC

Molecule: Agrobacterium tumefaciens ADP-glucose pyrophosphorylase mutant D141A (from UniProt P39669) (enzyme)
- stoichiometry N [1]: 4

Molecule: Agrobacterium tumefaciens ADP-glucose pyrophosphorylase mutant D141E (from UniProt P39669) (enzyme)
- stoichiometry N [2]: 4

Molecule: Agrobacterium tumefaciens ADP-glucose pyrophosphorylase mutant R11K (from UniProt P39669) (enzyme)
- stoichiometry N [3]: 4

Molecule: Agrobacterium tumefaciens ADP-glucose pyrophosphorylase mutant D141R (from UniProt P39669) (enzyme)
- stoichiometry N [4]: 2

Molecule: Agrobacterium tumefaciens ADP-glucose pyrophosphorylase mutant D141N (from UniProt P39669) (enzyme)
- stoichiometry N [5]: 4

Molecule: Agrobacterium tumefaciens ADP-glucose pyrophosphorylase mutant R11D (from UniProt P39669) (enzyme)
- stoichiometry N [6]: 4

Molecule: Agrobacterium tumefaciens ADP-glucose pyrophosphorylase double mutant R11D/D141R (from UniProt P39669) (enzyme)
- stoichiometry N [7]: 4

Molecule: O=P(O)(O)OC[C@H]1OC(O)(CO)[C@@H](O)[C@@H]1O (some centres unmarked) [Fru6P, fructose 6-phosphate]
- Kd [8]: 1820 µM
- Kd [9]: 1510 µM
- EC50 [10]: 500 µM
- EC50 [11]: 50 µM
- EC50 [12]: 840 µM
- EC50 [13]: 340 µM
- EC50 [14]: 1.32 mM
- EC50 ([15]; read-out: A0.5): 30 µM
- EC50 [16]: 2.97 mM
- EC50 [17]: 30 µM

Molecule: CC(=O)C(=O)O [Pyr, pyruvate]
- Kd [8]: 54 µM
- Kd [9]: 233 µM
- EC50 [10]: 49 µM
- IC50 [18]: 0.075 mM
- EC50 [11]: 40 µM
- EC50 [12]: 300 µM
- EC50 [13]: 450 µM
- EC50 [15]: 60 µM

B1: Agrobacterium tumefaciens ADP-glucose pyrophosphorylase wild type (enzyme)
chain: T2 sequence (P39669 1-420)
notes: ADP-glucose pyrophosphorylase (EC 2.7.7.27) of Agrobacterium tumefaciens, ~50 kDa subunit, encoded by plasmid pBHL1 (pET28c derivative) of Hill et al., 2019; also called ADP-Glc PPase; WT; source: E. coli BL21 (DE3), purified (His-Trap FF Ni2+ column, Superdex 200 gel filtration)
- stoichiometry N [19]: 4
